Reference: US10590113B2, “6-hydroxy-4-oxo-1,4-dihydropyrimidine-5-carboxamides as APJ agonists” (priority 2016, dated 2020)

These compounds were tested against T1, human APJ receptor (Homo sapiens, UniProt P35414) (assay: Intracellular cAMP Accumulation Assay (APJ hcAMP, HTRF)). Conditions: human APJ, intracellular cAMP accumulation; read-out: hAPJ cAMP EC50 Potency range.
T1 construct: expressed in transfected cells; host or cells: HEK293
T1 sequence (P35414 1-380): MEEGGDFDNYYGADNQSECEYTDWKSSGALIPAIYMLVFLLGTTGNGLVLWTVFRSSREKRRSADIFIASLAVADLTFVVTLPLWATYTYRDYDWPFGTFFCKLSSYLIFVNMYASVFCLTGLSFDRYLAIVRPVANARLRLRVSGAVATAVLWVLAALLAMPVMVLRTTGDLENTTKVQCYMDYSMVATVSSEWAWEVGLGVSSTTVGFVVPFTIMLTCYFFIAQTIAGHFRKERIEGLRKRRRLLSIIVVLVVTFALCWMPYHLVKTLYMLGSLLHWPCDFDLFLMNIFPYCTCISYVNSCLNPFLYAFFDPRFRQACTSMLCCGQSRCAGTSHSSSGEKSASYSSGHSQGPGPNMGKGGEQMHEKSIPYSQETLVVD
Format: cell-based
Procedure, shortened: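 Stably transfected HEK293 cells (5,000/well) incubated 30 min at room temperature with serially diluted compound, […] and 2 μM forskolin. cAMP measured by HTRF after 60 min with detection reagents, quantified against a cAMP standard curve; EC50 from variable-slope sigmoidal fit of inhibition of forskolin-stimulated cAMP.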

SMILES	EC50 [nM]
COc1cccc(OC)c1-n1c(CCC2CC2)nc(=O)c(C(=O)N2CCC(c3ncc(Cl)cc3F)C2)c1O (single isomer, unassigned) [Example 176, 5-[3-(5-chloro-3-fluoropyridin-2-yl)pyrrolidine-1-carbonyl]-2-(2-cyclopropylethyl)-1-(2,6-dimethoxyphenyl)-6-hydroxy-1,4-dihydropyrimidin-4-one]	0.01 to 10
COc1cccc(OC)c1-n1c(CCC2CC2)nc(=O)c(C(=O)N2CCC(c3ccc(F)cn3)C2)c1O (single isomer, unassigned) [Example 177, 2-(2-cyclopropylethyl)-1-(2,6-dimethoxyphenyl)-5-[3-(5-fluoropyridin-2-yl)pyrrolidine-1-carbonyl]-6-hydroxy-1,4-dihydropyrimidin-4-one]	0.01 to 10
COc1cccc(OC)c1-n1c(CCC2CC2)nc(=O)c(C(=O)N2CCC(c3ncccc3F)C2)c1O (single isomer, unassigned) [Example 178, 2-(2-cyclopropylethyl)-1-(2,6-dimethoxyphenyl)-5-[3-(3-fluoropyridin-2-yl)pyrrolidine-1-carbonyl]-6-hydroxy-1,4-dihydropyrimidin-4-one]	0.01 to 10
COc1cccc(OC)c1-n1c(CCC2CC2)nc(=O)c(C(=O)N2CCC(c3ncccc3F)C2)c1O (single isomer, unassigned) [Example 179, 2-(2-cyclopropylethyl)-1-(2,6-dimethoxyphenyl)-5-[3-(3-fluoropyridin-2-yl)pyrrolidine-1-carbonyl]-6-hydroxy-1,4-dihydropyrimidin-4-one]	0.01 to 10
COc1cccc(OC)c1-n1c(CCC2CC2)nc(=O)c(C(=O)N2CCC(c3ncc(Cl)cc3F)C2)c1O (single isomer, unassigned) [Example 180, 5-[3-(5-chloro-3-fluoropyridin-2-yl)pyrrolidine-1-carbonyl]-2-(2-cyclopropylethyl)-1-(2,6-dimethoxyphenyl)-6-hydroxy-1,4-dihydropyrimidin-4-one]	0.01 to 10
CC[C@@H](c1cc(F)cc(F)c1)n1c(-c2ccn(CC)n2)nc(=O)c(C(=O)N2CCC(c3ncccc3F)C2)c1O (single isomer, unassigned) [Example 181]	0.01 to 10
CC[C@@H](c1cc(F)cc(F)c1)n1c(-c2cnn(C)c2)nc(=O)c(C(=O)N2CCC(c3ncc(F)cc3F)C2)c1O (single isomer, unassigned) [Example 182]	0.01 to 10
CC[C@@H](c1cc(F)cc(F)c1)n1c(-c2cnn(C)c2)nc(=O)c(C(=O)N2CCC(c3ccc(Cl)cn3)C2)c1O (single isomer, unassigned) [Example 183]	0.01 to 10
CC[C@@H](c1cc(F)cc(F)c1)n1c(-c2ccn(C)n2)nc(=O)c(C(=O)N2CCC(c3ncc(F)cc3F)C2)c1O (single isomer, unassigned) [Example 184]	0.01 to 10
CC[C@@H](c1cc(F)cc(F)c1)n1c(-c2ccn(C)n2)nc(=O)c(C(=O)N2CCC(c3ccc(F)cn3)C2)c1O (single isomer, unassigned) [Example 185]	0.01 to 10
CC[C@@H](c1cc(F)cc(F)c1)n1c(-c2ccn(CC)n2)nc(=O)c(C(=O)N2CCC(c3ncccc3F)C2)c1O (single isomer, unassigned) [Example 186]	0.01 to 10
CC[C@@H](c1cc(F)cc(F)c1)n1c(-c2cnn(C)c2)nc(=O)c(C(=O)N2CCC(c3ccc(Cl)cn3)C2)c1O (single isomer, unassigned) [Example 187]	0.01 to 10
CC[C@@H](c1cc(F)cc(F)c1)n1c(-c2cnn(C)c2)nc(=O)c(C(=O)N2CCC(c3ncc(F)cc3F)C2)c1O (single isomer, unassigned) [Example 188]	0.01 to 10
CC[C@@H](c1cc(F)cc(F)c1)n1c(-c2ccn(C)n2)nc(=O)c(C(=O)N2CCC(c3ncccc3F)C2)c1O (single isomer, unassigned) [Example 189]	0.01 to 10
CC[C@@H](c1cc(F)cc(F)c1)n1c(-c2ccn(C)n2)nc(=O)c(C(=O)N2CCC(c3ccc(Cl)cn3)C2)c1O (single isomer, unassigned) [Example 190]	0.01 to 10
CC[C@@H](c1cc(F)cc(F)c1)n1c(-c2cnn(C)c2)nc(=O)c(C(=O)N2CCC(c3ccc(F)cn3)C2)c1O (single isomer, unassigned) [Example 191]	0.01 to 10

SMILES	EC50 [nM]
CC[C@@H](c1cc(F)cc(F)c1)n1c(-c2ccn(CC)n2)nc(=O)c(C(=O)N2CCC(c3ncc(F)cc3F)C2)c1O (single isomer, unassigned) [Example 192]	0.01 to 10
CC[C@@H](c1cc(F)cc(F)c1)n1c(-c2ccn(C)n2)nc(=O)c(C(=O)N2CCC(c3ccccc3F)C2)c1O (single isomer, unassigned) [Example 193]	0.01 to 10
CC[C@@H](c1cc(F)cc(F)c1)n1c(-c2ccn(C)n2)nc(=O)c(C(=O)N2CCC(c3ccc(F)cc3)C2)c1O (single isomer, unassigned) [Example 194]	0.01 to 10
CC[C@@H](c1cc(F)cc(F)c1)n1c(-c2ccn(C)n2)nc(=O)c(C(=O)N2CCC(c3ccccc3OC)C2)c1O (single isomer, unassigned) [Example 195]	0.01 to 10
CC[C@@H](c1cc(F)cc(F)c1)n1c(-c2cnn(C)c2)nc(=O)c(C(=O)N2CCC(c3ccccc3F)C2)c1O (single isomer, unassigned) [Example 196]	0.01 to 10
CC[C@@H](c1cc(F)cc(F)c1)n1c(-c2cnn(C)c2)nc(=O)c(C(=O)N2CCC(c3ccc(F)cc3)C2)c1O (single isomer, unassigned) [Example 197]	0.01 to 10
CC[C@@H](c1cc(F)cc(F)c1)n1c(-c2cnn(C)c2)nc(=O)c(C(=O)N2CCC(c3ccccc3OC)C2)c1O (single isomer, unassigned) [Example 198]	0.01 to 10
CC[C@@H](c1cc(F)cc(F)c1)n1c(-c2ccn(C)n2)nc(=O)c(C(=O)N2CCC(c3ccc(F)cn3)C2)c1O (single isomer, unassigned) [Example 199]	0.01 to 10
CC[C@@H](c1cc(F)cc(F)c1)n1c(-c2ccn(C)n2)nc(=O)c(C(=O)N2CCC(c3cc(F)ccn3)C2)c1O (single isomer, unassigned) [Example 200]	0.01 to 10
CC[C@@H](c1cc(F)cc(F)c1)n1c(-c2ccn(C)n2)nc(=O)c(C(=O)N2CCC(c3ncccc3F)C2)c1O (single isomer, unassigned) [Example 201]	0.01 to 10
CC[C@@H](c1cc(F)cc(F)c1)n1c(-c2ccn(CC)n2)nc(=O)c(C(=O)N2CCC(c3cc(F)ccn3)C2)c1O (single isomer, unassigned) [Example 202]	0.01 to 10
CC[C@@H](c1cc(F)cc(F)c1)n1c(-c2cnn(C)c2)nc(=O)c(C(=O)N2CCC(c3cc(F)ccn3)C2)c1O (single isomer, unassigned) [Example 203]	0.01 to 10
CC[C@@H](c1cc(F)cc(F)c1)n1c(-c2nc(C)cs2)nc(=O)c(C(=O)N2CCC(c3ncccc3F)C2)c1O (single isomer, unassigned) [Example 204]	0.01 to 10
CC[C@@H](c1cc(F)cc(F)c1)n1c(-c2nc(C)cs2)nc(=O)c(C(=O)N2CCC(c3cc(F)ccn3)C2)c1O (single isomer, unassigned) [Example 205]	0.01 to 10
CC[C@@H](c1cc(F)cc(F)c1)n1c(-c2nc(C)cs2)nc(=O)c(C(=O)N2CCC(c3ccc(F)cn3)C2)c1O (single isomer, unassigned) [Example 206]	0.01 to 10
